Assay results reported in patent publication EP0407586A1, “HUMAN MONOCLONAL ANTIBODY AND PROCESS FOR ITS PREPARATION” (TEIJIN LIMITED, priority 1988, dated 1990).

What follows are compounds tested on reaction of the MCA produced by hybridoma 11-50 with human colon cancer cell line SW480 (assay: Inhibition of the reaction of the MCA with immobilized SW480 cells (ELISA)). Conditions: SW480, result in words.
Assay type: binding
Protocol: It was determined by the ELISA. As an antigen, 10 µg/ml asialofetuin (SIGMA) solution in 0.1 M borate buffer (pH 8.6) whose 100 ul was immobilized to each well of the Falcon microtest III plate (96 wells) was used. The supernatant of the hybridoma culture mixture was added to the plate with 50 µl every well and allowed to stand at room temperature for 1 hour. The wells were washed with 1 % bovine serum albumin (abbreviated to BSA hereinafter)-containing Hanks' buffer salt solution (abbreviated to HBSS-B) 3 times, then 100 µl of 0.6 mg/ml p-nitrophenyl phosphate solution in 1 M diethanolamine + 1 mM MgCl2 (pH 9.8) were added. After 30 to 60 minutes, the absorbance at 405 nm wavelength was measured to select the hybridomas with antibody activity.
Fifty microliters of 30-fold diluted culture supernatant of hybridoma 11-50 with HBSS-B and fifty microliters of a variety of protein solutions diluted stepwise with HBSS-B (described in Table 3) were mixed beforehand, then 50 µl of the mixture was added to a -96-well plate to which human colon cancer cell line SW480 had been immobilized with glutaraldehyde, then allowed to stand at room temperature for 1 hour. The following procedures were done according to the method described in Example 1-(3).
Inhibitory activity in % = [1 - (A405 in the presence of an inhibitor)/(A405-in the absence of an inhibitor)]
Various kinds of oligosaccharides (listed in Table 4) were diluted stepwise with HBSS-B and the solutions were used to conduct the evaluation according to the method ,described in Example 4-(1).

Structure (SMILES) | inhibitory action of oligosaccharides
CC(=O)N[C@H]1[C@H](O[C@H]2[C@@H](O)[C@@H](CO)O[C@@H](O[C@H]3[C@H](O)[C@@H](O)C(O)O[C@@H]3CO)[C@@H]2O)O[C@H](CO)[C@@H](O)[C@@H]1O[C@@H]1O[C@H](CO)[C@H](O)[C@H](O)[C@H]1O (stereo partly drawn) [Lacto-N-tetraose, Galβ1→3GlcNAcβ1→3Galβ1→4Glc] | strongest inhibition

Same assay, conditions: SW480; read-out: IC50 (concentration of oligosaccharides inhibiting the bonding of MCA to the cancer cells by 50%)

Structure (SMILES) | IC50 [mM]
O=C[C@H](O)[C@@H](O)[C@H](O[C@@H]1O[C@H](CO)[C@@H](O)[C@H](O)[C@H]1O)[C@H](O)CO [Cellobiose, Galβ1→4Glc] | > 50
CO[C@H]1O[C@H](CO)[C@H](O)[C@H](O[C@@H]2O[C@H](CO)[C@H](O)[C@H](O)[C@H]2O)[C@H]1NC(C)=O [Galβ1→3GalNAcα1-OMe] | 2.8
CO[C@@H]1O[C@H](CO)[C@@H](O[C@@H]2O[C@H](CO)[C@H](O)[C@H](O)[C@H]2O)[C@H](O)[C@H]1NC(C)=O [Galβ1→4GlcNAcβ1-OMe] | > 5
CC(=O)N[C@H]1[C@H](O[C@H]2[C@@H](O)[C@@H](CO)O[C@@H](O[C@H]3[C@H](O)[C@@H](O)C(O)O[C@@H]3CO)[C@@H]2O)O[C@H](CO)[C@@H](O)[C@@H]1O[C@@H]1O[C@H](CO)[C@H](O)[C@H](O)[C@H]1O (stereo partly drawn) [Lacto-N-tetraose, Galβ1→3GlcNAcβ1→3Galβ1→4Glc] | 0.68
OC[C@H]1O[C@@H](O[C@H]2[C@H](O)[C@@H](O)C(O)O[C@@H]2CO)[C@H](O)[C@@H](O)[C@H]1O (stereo partly drawn) [Lactose, Galβ1→4Glc] | 21
